Reference: patent EP0629585A1, “Process of inhibition oxalate scale formation” (MONSANTO EUROPE S.A., priority 1993, dated 1994)
Structures can show the parent of a compound that is named as a salt.

Test: Calcium oxalate scale inhibition test under conditions similar to an alkaline pulp bleaching process
Conditions: dosage 25 ppm active acid, 45°C, pH 9.5, 100 ppm calcium, 80 ppm oxalates
Method: The preferred oxalate scale inhibiting compound of the invention, i.e. the compound of formula I above, was tested alongside various members of the known "DEQUEST" family of phosphonate inhibitors under conditions similar to those encountered in an alkaline pulp bleaching process. The word "DEQUEST" is a Registered Trade Mark.
The temperature of the aqueous solution used in the tests was maintained at 45°C and the pH at 9.5 (adjusted using an ammonium hydroxide/ammonium chloride buffering agent). Tests times of 2.5, 8 and 24 hours were deployed, and concentrations of 100 ppm of calcium and 80 ppm of oxalates were present in the aqueous solution. A dosage rate of inhibitor of 25 ppm was used in each test. The "DEQUEST" scale inhibitors used in the tests were designated A to E and were as follows: • A - DEQUEST 2066 (diethylenetriaminepenta(methylenephosphonic acid) or its salts) • B - DEQUEST 2046 (ethylenediaminetetra(methylenephosphonic acid) or its salts) • C - DEQUEST 2000 (aminotri(methylenephosphonic acid) or its salts) • D - DEQUEST 2010 (1-hydroxyethylene(1,1 diphosphonic acid)) • E - DEQUEST 2056 (hexamethylenediaminetetra(methylenephosphonic acid) or its salts). TABLE
The results above express the scale-inhibiting effects of the various inhibitors in terms of percentage inhibition.

Compound	Percentage Inhibition (time 2.5 hrs)	Percentage Inhibition (time 8 hrs)	Percentage Inhibition (time 24 hrs)
O=P(O)(O)CN(CCCN(CP(=O)(O)O)CP(=O)(O)O)CCN(CCCN(CP(=O)(O)O)CP(=O)(O)O)CP(=O)(O)O [(I)]	100	92	49
O=P(O)(O)CN(CP(=O)(O)O)CP(=O)(O)O [C, aminotri(methylenephosphonic acid) or its salts]	51		
CC(O)(P(=O)(O)O)P(=O)(O)O [D, 1-hydroxyethylene(1,1 diphosphonic acid)]	49		
diethylenetriaminepenta(methylenephosphonic acid) or its salts	64	38	24
ethylenediaminetetra(methylenephosphonic acid) or its salts [B]	50	23	14
hexamethylenediaminetetra(methylenephosphonic acid) or its salts	34		
